According to patent publication US11123323B2, “Monoterpenes for treating respiratory disorders, in particular bronchopulmonary disorders” (Maria Clemetine Martin Klosterfrau Vertriebsqesellschaft MBH, priority 2008, dated 2021):

What was measured:
[1] = system: IL-1beta production in LPS-stimulated human monocytes; experiment: LPS-stimulated production of IL-1beta in human monocytes in vitro (ELISA); type: cell-based; conditions: for IL-1beta: LPS, 20 hours
Source text: 1,8-Cineol intensifies in particular the action of subtherapeutic concentrations of beclometasone which are relevant for the peripheral respiratory tract.

[2] = system: FCS-stimulated production of superoxides (O2^−) in normal human monocytes; experiment: FCS-stimulated superoxide production of normal human monocytes in vitro (INT-formazan); type: cell-based; conditions: for O2^−: FCS 10%
Protocol: As already described, monocytes were isolated from 50 ml of venous blood which was repeatedly donated voluntarily for the experiments by healthy non-smoking subjects (n=4). […] To this end, the active compounds were incubated together with freshly isolated monocytes (10^5/ml) and the FCS stimulus (10%, from Sigma) for 20 hours in a cell culture medium (RPMI-1640, from Sigma). […] The determination of the cytosolic superoxide production is based on the reduction of the dye p-iodonitrotetrazolium violet (INTV), which reacts specifically with superoxide ions, to iodonitrotetrazolium formazan (formazan). INTV is taken up by the cells into the cytosol. Intracellularly, the nitrogen cycle of the INTV is reduced by free superoxide radicals, giving rise to a water-soluble intermediate and the water-insoluble formazan, which have their absorption maxima at 505 and 490 nm, respectively. […] At the end of an experiment, the cell lysate is (after treatment with hydrochloric acid) measured at 492 nm in a photometer. Here, the absorption of light is proportional to the amount of intracellularly accumulated INT-formazan which can then be determined using a formazan calibration curve. The INT-formazan accumulation for its part is determined as a measure for the intracellular production of superoxide.

[3] = becl. 10^−9 mol/l, Table 5 series
[4] = becl. 10^−9 mol/l, Table 6 series
[5] = becl. 10^−10 mol/l, Table 5 series
[6] = becl. 10^−10 mol/l, Table 6 series
[7] = becl. 10^−11 mol/l, Table 5 series
[8] = becl. 10^−11 mol/l, Table 6 series

Compound: C[C@H]1C[C@H]2[C@@H]3CCC4=CC(=O)C=C[C@]4(C)[C@@]3(Cl)[C@@H](O)C[C@]2(C)[C@@]1(O)C(=O)CO [beclometasone]
- Effect vs. cineol 10^−6 mol/l Inhibition (%) ([1]; beclometasone 10^−9 mol/l): 25.2 ± 20%
- Effect vs. control Inhibition (%) ([1]; beclometasone 10^−9 mol/l): 49.4 ± 20%
- IL-1beta ([1]; beclometasone 10^−9 mol/l): 2654 ± 545 Pg/5 × 10^4 cells
- Effect vs. control Inhibition (%) ([1]; beclometasone 10^−10 mol/l): 22.9 ± 23%
- production of IL-1beta, change ([1]; beclometasone 10^−10 mol/l): −22.9%
- Effect vs. cineol 10^−6 mol/l Inhibition (%) ([1]; beclometasone 10^−10 mol/l, (+) in brackets = more IL-1beta than with cineol): (+14 ± 23) %
- IL-1beta ([1]; beclometasone 10^−10 mol/l): 4047 ± 940 Pg/5 × 10^4 cells
- Effect vs. control Inhibition (%) ([1]; beclometasone 10^−11 mol/l): 19.7 ± 20%
- production of IL-1beta, change ([1]; beclometasone 10^−11 mol/l): −19.7%
- Effect vs. cineol 10^−6 mol/l Inhibition (%) ([1]; beclometasone 10^−11 mol/l, (+) in brackets = more IL-1beta than with cineol): (+18.9 ± 20) %
- IL-1beta ([1]; beclometasone 10^−11 mol/l): 4217 ± 864 Pg/5 × 10^4 cells
- Effect vs. control Inhibition (%) ([1]; beclometasone 10^−12 mol/l): 0.1 ± 19%
- production of IL-1beta, change ([1]; beclometasone 10^−12 mol/l): 0%
- Effect vs. cineol 10^−6 mol/l Inhibition (%) ([1]; beclometasone 10^−12 mol/l, (+) in brackets = more IL-1beta than with cineol): (+47.8 ± 19) %
- IL-1beta ([1]; beclometasone 10^−12 mol/l): 5246 ± 1028 Pg/5 × 10^4 cells
- inhibition of LPS-stimulated production of IL-1beta ([1]; beclometasone on its own, concentration not given): 49.9±20%
- O2^− [2, 3]: 16052 ± 969 nmol/mL
- O2^− [2, 4]: 17338 ± 1305 nmol/mL
- Percent of control [2, 3]: −10 ± 6%
- Percent of control [2, 4]: −8 ± 7%
- O2^− [2, 5]: 16445 ± 903 nmol/mL
- O2^− [2, 6]: 17577 ± 1191 nmol/mL
- Percent of control [2, 5]: −8 ± 5%
- Percent of control [2, 6]: −6 ± 7%
- O2^− [2, 7]: 16562 ± 1081 nmol/mL
- O2^− [2, 8]: 17639 ± 1372 nmol/mL
- Percent of control [2, 7]: −7 ± 6%
- Percent of control [2, 8]: −6 ± 8%
- O2^− ([2]; beclometasone 10^−6 mol/l, 20 hours, Table 3 series): 18240 ± 463 nmol/mL
- O2^− ([2]; beclometasone 10^−7 mol/l, 20 hours, Table 3 series): 16782 ± 678 nmol/mL
- Percent of control ([2]; beclometasone 10^−7 mol/l, vs FCS control, Table 3 series): +5.8 ± 4%
- O2^− ([2]; beclometasone 10^−8 mol/l, 20 hours, Table 3 series): 16035 ± 639 nmol/mL
- Percent of control ([2]; beclometasone 10^−8 mol/l, vs FCS control, Table 3 series): −1.1 ± 4%
- O2^− ([2]; beclometasone 10^−9 mol/l, 20 hours, Table 3 series): 14192 ± 733 nmol/mL
- Percent of control ([2]; beclometasone 10^−9 mol/l, vs FCS control, Table 3 series): −10.5±5%
- O2^− ([2]; beclometasone 10^−10 mol/l, 20 hours, Table 3 series): 14702 ± 682 nmol/mL
- Percent of control ([2]; beclometasone 10^−10 mol/l, vs FCS control, Table 3 series): −7.3 ± 5%
- O2^− ([2]; beclometasone 10^−11 mol/l, 20 hours, Table 3 series): 15042 + 568 nmol/ml
- Percent of control ([2]; beclometasone 10^−11 mol/l, vs FCS control, Table 3 series): −5.1 ± 3%
- effect on the O2^− production ([2]; beclometasone 10^−11 to 10^−9 mol/l on its own, Table 6 series): no detectable effect on the O2^− production
- O2^− ([2]; beclometasone 10^−12 mol/l, 20 hours, Table 3 series): 15050 ± 455 nmol/mL
- Percent of control ([2]; beclometasone 10^−12 mol/l, vs FCS control, Table 3 series): −5.1 ± 3%
- monocyte O2^− production ([2]; high concentrations (10^−8 mol/l and above) of beclometasone, FIG. 4): stimulated the monocyte O2^− production
